Patent publication US12383556B2, “Methods of treating Sjögren's syndrome using a Bruton's tyrosine kinase inhibitor” (NOVARTIS AG, priority 2019, dated 2025)
Read-outs that look alike come from different tables or passages of the source.

Assay: First-in-human Part 2 multiple ascending dose q.d. blood and urine PK
Assay type: in vivo
Conditions: for Amount recovered / Amount recovered (%): Day 12, urine; for drug accumulation ratio (Racc): day 12 vs day 1, q.d.; for CL renal: blood and urine, Day 12, read-out: Renal clearance
Excerpt: First-in-human study in up to approximately 168 healthy volunteers (HVs), of which 64 (in Parts 2 & 4) had asymptomatic atopic diathesis. • Part 1 was a double-blind (subject and investigator blind, sponsor unblinded), placebo-controlled single ascending dose (SAD) escalation study of 10 cohorts (N=80) • Part 2 was a double-blind (subject and investigator blind, sponsor unblinded), placebo-controlled multiple ascending dose (MAD) (13 doses over 12 days) escalation study employing once daily dosing in 6 cohorts in healthy volunteers with asymptomatic atopic diathesis (N=48) • Part 3 was a single dose open-label crossover food effect study in 12 HVs • Part 4 was a double-blind (subject and investigator blind, sponsor unblinded), placebo-controlled multiple dose (25 doses over 12 days) study employing twice daily dosing in 2 cohorts of healthy volunteers with asymptomatic atopic diathesis (N=16)
In Parts 2 and 4, subjects were admitted on Day −2 or −1 for baseline safety assessments and to confirm eligibility. Eligible subjects received the first dose of compound (I) under fasting conditions on Day 1, and continued to take study medication under fasting conditions up to and including Day 12. Subjects were domiciled from Day −2 or −1 until the morning of Day 16, which equals 96 hours after the last dose of compound (I) was received. In Parts 2 and 4, the study medication was given once daily and twice daily respectively (details are found in the schedule of assessments).
Subjects were assigned to one of the following 6 cohorts. In each cohort, 8 subjects were randomized to either compound (I) or matching placebo in a 6:2 ratio. • Cohort 1: multiple oral doses of 10 mg compound (I) or matching placebo • Cohort 2: multiple oral doses of 25 mg compound (I) or matching placebo • Cohort 3: multiple oral doses of 50 mg compound (I) or matching placebo • Cohort 4: multiple oral doses of 100 mg compound (I) or matching placebo • Cohort 5: multiple oral doses of 400 mg compound (I) or matching placebo • Cohort 6: multiple oral doses of up to 600 mg compound (I) or matching placebo
Pharmacokinetic samples were obtained in blood and evaluated in all subjects at all dose levels. The samples from placebo subjects were not analyzed. The samples for PK assessments from subjects were collected at time points defined in the study. Compound (I) concentrations were determined in blood by a validated LC-MS/MS method.

[1] = 10 mg qd, Day 12, blood, Mean ± SD
[2] = 25 mg qd, Day 12, blood, Mean ± SD
[3] = 50 mg qd, Day 12, blood, Mean ± SD
[4] = 50 mg qd, Day 12, blood, Median (Min-Max)
[5] = 100 mg qd, Day 1, blood, Mean ± SD
[6] = 100 mg qd, Day 1, blood, Median (Min-Max)
[7] = 100 mg qd, Day 12, blood, Mean ± SD
[8] = 400 mg qd, Day 1, blood, Mean ± SD
[9] = 400 mg qd, Day 12, blood, Mean ± SD
[10] = 600 mg qd, Day 1, blood, Mean ± SD
[11] = 600 mg qd, Day 12, blood, Mean ± SD

Cmax (10 mg qd, Day 1, blood, Mean ± SD): 8.40 ± 2.02 ng/mL | CLss/F [1]: 425 ± 64.8 L/h | Cmax [1]: 18.2 ± 5.90 ng/mL | CLss/F (10 mg qd, Day 12, blood, Median (Min-Max)): 423 (341-529) L/h | Amount recovered (10 mg qd, Mean ± SD): 0.0663 ± 0.0309 mg | Amount recovered (%) (10 mg qd, Mean ± SD): 0.663 ± 0.309% | Amount recovered (10 mg qd, Median (Min-Max)): 0.0630 mg | Cmax (25 mg qd, Day 1, blood, Mean ± SD): 40.9 ± 21.6 ng/mL | CLss/F [2]: 307 ± 253 L/h | Cmax [2]: 85.9 ± 31.5 ng/mL | CLss/F (25 mg qd, Day 12, blood, Median (Min-Max)): 248 (129-809) L/h | Amount recovered (25 mg qd, Mean ± SD): 0.114 ± 0.0706 mg | Amount recovered (%) (25 mg qd, Mean ± SD): 0.456 ± 0.283% | Cmax (50 mg qd, Day 1, blood, Mean ± SD): 76.5 ± 22.0 ng/mL | CLss/F [3]: 268 ± 92.8 L/h | Cmax [3]: 102 ± 22.0 ng/mL | CLss/F [4]: 276 (154-395) L/h | Cmax [4]: 100 (73.3-131) ng/mL | Amount recovered (50 mg qd, Mean ± SD): 0.233 ± 0.0880 mg | Amount recovered (%) (50 mg qd, Mean ± SD): 0.467 ± 0.176% | AUC0-24 [5]: 315 ± 91.5 ng·h/mL | AUClast [5]: 311 ± 89.1 ng·h/mL | Cmax [5]: 187 ± 85.0 ng/mL | MRT [5]: 167 ± 76.8 min | AUC0-24 [6]: 338 (168-419) h*ng/mL | AUClast [6]: 333 (168-416) h*ng/mL | Cmax [6]: 189 (75.6-285) ng/mL | AUC0-24 [7]: 485 ± 179 ng·h/mL | AUClast [7]: 488 ± 172 ng·h/mL | CLss/F [7]: 198 ± 88.7 L/h | Cmax [7]: 233 ± 84.1 ng/mL | CLss/F (100 mg qd, Day 12, blood, Median (Min-Max)): 166 (129-298) L/h | Amount recovered (100 mg qd, Mean ± SD): 0.648 ± 0.330 mg | Amount recovered (%) (100 mg qd, Mean ± SD): 0.648 ± 0.330% | AUC0-24 [8]: 977 ± 378 ng·h/mL | AUClast [8]: 973 ± 379 ng·h/mL | Cmax [8]: 518 ± 89.1 ng/mL | MRT [8]: 181 ± 66.6 min | Cmax (400 mg qd, Day 1, blood, Median (Min-Max)): 513 (383-622) ng/mL | AUC0-24 [9]: 1280 ± 577 ng·h/mL | AUClast [9]: 1300 ± 602 ng·h/mL | CLss/F [9]: 366 ± 150 L/h | Cmax [9]: 551 ± 263 ng/mL | CLss/F (400 mg qd, Day 12, blood, Median (Min-Max)): 351 (177-591) L/h | Amount recovered (400 mg qd, Mean ± SD): 1.25 ± 0.647 mg | Amount recovered (%) (400 mg qd, Mean ± SD): 0.313 ± 0.162% | AUC0-24 [10]: 1080 ± 377 ng·h/mL | AUClast [10]: 1080 ± 377 ng·h/mL | Cmax [10]: 550 ± 87.6 ng/mL | MRT [10]: 188 ± 34.8 min | Cmax (600 mg qd, Day 1, blood, Median (Min-Max)): 545 (461-691) ng/mL | AUC0-24 [11]: 1230 ± 356 ng·h/mL | AUClast [11]: 1240 ± 341 ng·h/mL | CLss/F [11]: 521 ± 131 L/h | Cmax [11]: 563 ± 229 ng/mL | CLss/F (600 mg qd, Day 12, blood, Median (Min-Max)): 569 (345-661) L/h | Amount recovered (600 mg qd, Mean ± SD): 1.54 ± 0.915 mg | Amount recovered (%) (600 mg qd, Mean ± SD): 0.257 ± 0.153% | drug accumulation ratio (Racc) (high dose): 1.2 | drug accumulation ratio (Racc) (low dose): 5 | CL renal (human, oral, 10 mg, 10 mg qd, Mean ± SD): 45.3 ± 18 mL/min | CL renal (human, oral, 10 mg, 10 mg qd, Median (Min-Max)): 41.6 mL/min | CL renal (human, oral, 25 mg, 25 mg qd, Mean ± SD): 16.8 ± 6.81 mL/min | CL renal (human, oral, 25 mg, 25 mg qd, Median (Min-Max)): 18.9 mL/min | CL renal (human, oral, 50 mg, 50 mg qd, Mean ± SD): 20.4 ± 2.4 mL/min | CL renal (human, oral, 50 mg, 50 mg qd, Median (Min-Max)): 20.5 mL/min | CL renal (human, oral, 100 mg, 100 mg qd, Mean ± SD): 21.6 ± 5.41 mL/min | CL renal (human, oral, 100 mg, 100 mg qd, Median (Min-Max)): 21.1 mL/min | CL renal (human, oral, 400 mg, 400 mg qd, Mean ± SD): 16.9 ± 7.13 mL/min | CL renal (human, oral, 400 mg, 400 mg qd, Median (Min-Max)): 14.5 mL/min | CL renal (human, oral, 600 mg, 600 mg qd, Mean ± SD): 20 ± 8.25 mL/min | CL renal (human, oral, 600 mg, 600 mg qd, Median (Min-Max)): 18.1 mL/min | AUC(0-t) (human, blood, oral, 10 mg, 10 mg qd, Day 1, blood, Mean ± SD, read-out: AUC0-24): 4.94 ± 1.35 ng·h/mL | AUC(0-t) (human, blood, oral, 10 mg, 10 mg qd, Day 1, blood, Mean ± SD, read-out: AUClast): 4.17 ± 1.38 ng·h/mL | MRT (human, blood, oral, 10 mg, 10 mg qd, Day 1, blood, Mean ± SD, read-out: MRT): 45.7 ± 9.06 min | Tmax (human, blood, oral, 10 mg, 10 mg qd, Day 1, blood, Median (Min-Max)): 31 min | AUC(0-t) (human, blood, oral, 10 mg, 10 mg qd, Day 1, blood, Median (Min-Max), read-out: AUC0-24): 4.94 ng·h/mL
Compound: C=CC(=O)N(C)CCOc1c(N)ncnc1-c1cc(F)cc(NC(=O)c2ccc(C3CC3)cc2F)c1C [Compound of Formula (I), N-(3-(6-Amino-5-(2-(N-methylacrylamido)ethoxy)pyrimidin-4-yl)-5-fluoro-2-methylphenyl)-4-cyclopropyl-2-fluorobenzamide]
